Assay in all cases: ≥ marks a high value that may be exact or a test limit, other limits are often not marked, values filed in µg/mL are converted to µM
For experiment [1], the system named is Bacillus subtilis ATCC 9372.
Experiment [2] deals with Escherichia coli ATCC 8739.
Experiment [3] has as its system Proteus vulgaris NCTC 4635.
For experiment [4], the system named is Pseudomonas aeruginosa ATCC 9027.
The test system of experiment [5] is Staphylococcus aureus ATCC 6538.
For experiment [6], the system named is Candida albicans NCPF 1467.
Experiment [7] concerns Enterococcus faecalis ATCC 29212.
Experiment [8] deals with Escherichia coli NCTC 10418.
Experiment [9] relates to Staphylococcus aureus ATCC 33591.
Experiment [10] concerns Staphylococcus aureus NCTC 10788.
The test system of experiment [11] is Staphylococcus aureus S015.
Experiment [12] has as its system Acinetobacter baumannii ATCC 19606.
For experiment [13], the system named is Acinetobacter baumannii.
Experiment [14] deals with Bacillus subtilis AB91021.
In experiment [15] the test system is Bacillus thuringiensis AB92037.
The subject of experiment [16] is Candida albicans AY93025.
Experiment [17] concerns Escherichia coli AB94012.
For experiment [18], the system named is Escherichia coli ATCC 25922.
Experiment [19] concerns Escherichia coli ATCC 35218.
The subject of experiment [20] is Klebsiella pneumoniae ATCC 700603.
Experiment [21] concerns Micrococcus luteus AB93113.
Experiment [22] deals with Pseudomonas aeruginosa AB93066.
Experiment [23] deals with Pseudomonas aeruginosa ATCC 27853.
Experiment [24] has as its system Staphylococcus aureus AB94004.
In experiment [25] the test system is Staphylococcus aureus ATCC 25923.
The subject of experiment [26] is Staphylococcus aureus ATCC 29213.
In experiment [27] the test system is Staphylococcus aureus P1369.
Experiment [28] has as its system Staphylococcus aureus P1374.
Experiment [29] has as its system Staphylococcus aureus P1386.
Experiment [30] concerns Staphylococcus epidermidis P1389.
Experiment [31] concerns Klebsiella pneumoniae.
For experiment [32], the system named is Nocardia asteroides.
For experiment [33], the system named is Serratia marcescens.
Experiment [34] concerns Staphylococcus aureus ATCC 2592.
For experiment [35], the system named is Bacillus anthracis.
The test system of experiment [36] is Bacillus cereus.
In experiment [37] the test system is Escherichia coli.
For experiment [38], the system named is Staphylococcus aureus.
The test system of experiment [39] is Bacillus subtilis ATCC 6633.
In experiment [40] the test system is Candida albicans ATCC 20032.
Experiment [41] relates to Escherichia coli ML-35p.
Experiment [42] relates to Pseudomonas aeruginosa 08031014.
Experiment [43] deals with Pseudomonas aeruginosa PAO1.
The subject of experiment [44] is Staphylococcus aureus ATCC 43300.

Results on six compounds are retold here after DBAASP.

In brackets after ≈: the same amount, converted by molar mass. Several values for one entry are separate records, joined by “and”; a condition that tells them apart may be missing. Equal entries are not always repeated.

Turning to `CC[C@H](C)[C@H](NC(=O)[C@@H](NC(=O)[C@H](CO)NC(=O)[C@H](C)NC(=O)[C@@H](NC(=O)[C@H](CCCCN)NC(=O)[C@H](CCCCN)NC(=O)[C@@H](NC(=O)[C@@H](NC(=O)[C@@H](N)CC(=O)O)C(C)C)[C@@H](C)CC)C(C)C)C(C)C)C(=O)NCC(=O)O` [DVIKKVASVIG], the MIC (as a rule, the smallest concentration in the dilution series that meets the test's criterion for growth inhibition) in [1] was at least 908 µM; in experiment [2], at least 908 µM; in experiment [3], at least 908 µM; in experiment [4], above 908 µM; in experiment [5] it was above 908 µM.
Turning to `CC[C@H](C)[C@H](NC(=O)[C@H](CC(C)C)NC(=O)CNC(=O)[C@@H]1CCCN1C(=O)[C@@H](NC(=O)[C@H](CCSC)NC(=O)CNC(=O)[C@H](CC(C)C)NC(=O)[C@@H](N)Cc1ccccc1)[C@@H](C)CC)C(=O)NCC(=O)NCC(=O)N[C@@H](CC(C)C)C(=O)N[C@H](C(=O)N[C@@H](CO)C(=O)N[C@@H](C)C(=O)N[C@@H](Cc1ccccc1)C(=O)N[C@@H](CCCCN)C(=O)O)[C@@H](C)CC` [FLGMIPGLIGGLISAFK], the minimum inhibitory concentration (MIC) in experiment [6] is 10 µM (≈ 17.3 µg/mL); in [7], 39.9 µM (≈ 69.2 µg/mL); in experiment [8], at least 320 µM; in experiment [9], 9.98 µM (≈ 17.3 µg/mL); in [10], 5 µM (≈ 8.67 µg/mL); in experiment [11], 9.98 µM (≈ 17.3 µg/mL).
With `CC[C@H](C)[C@H](NC(=O)[C@H](C)NC(=O)CNC(=O)[C@@H]1CCCN1C(=O)[C@@H](NC(=O)[C@H](CC(C)C)NC(=O)CNC(=O)[C@H](Cc1c[nH]c2ccccc12)NC(=O)[C@H](CC(C)C)NC(=O)[C@@H](N)Cc1ccccc1)[C@@H](C)CC)C(=O)N[C@@H](CO)C(=O)N[C@@H](C)C(=O)N[C@H](C(=O)N[C@H](C(=O)N[C@@H](CO)C(=O)N[C@@H](CC(C)C)C(=O)N[C@H](C(=O)N[C@@H](CCCCN)C(=O)N[C@@H](CCCCN)C(N)=O)[C@@H](C)CC)[C@@H](C)O)C(C)C` [FLWGLIPGAISAVTSLIKK], the MIC was 9.93 µM and 7.94 µM in [12]; 14.4 µM (≈ 29.1 µg/mL) in experiment [13]; 4.96 µM (≈ 10 µg/mL) in experiment [14]; 4.96 µM (≈ 10 µg/mL) in [15]; 9.93 µM (≈ 20 µg/mL) in experiment [16]; 31.8 µM (≈ 64 µg/mL) in [7]. In addition, the minimal inhibitory concentration (MIC) in experiment [17] is at least 49.6 µM; in experiment [18] it was 31.8 µM (≈ 64 µg/mL); in [19], 31.8 µM (≈ 64 µg/mL); in experiment [20], above 31.8 µM; in experiment [21], 2.48 µM (≈ 5 µg/mL); in experiment [22] it was at least 49.6 µM. Also, the MIC in experiment [23] is above 31.8 µM; in experiment [24], 2.48 µM (≈ 5 µg/mL); in experiment [25] it was 15.9 µM (≈ 32 µg/mL); in experiment [26] it was 7.94 µM (≈ 16 µg/mL); in experiment [27], 4.96 µM (≈ 10 µg/mL); in experiment [28], 4.96 µM (≈ 10 µg/mL). Besides, the MIC in experiment [29] and in [30] was 4.96 µM (≈ 10 µg/mL) throughout.
Take `CC[C@H](C)[C@@H]1NC(=O)[C@H](CCCCN)NC(=O)[C@@H](NC(=O)[C@H](CCSC)NC(=O)[C@@H](NC(=O)[C@H](CC(C)C)NC(=O)[C@@H]2CCCN2C(=O)[C@H](CC(C)C)NC(=O)[C@@H](NC(=O)[C@@H](N)Cc2ccccc2)C(C)C)C(C)C)CSSC[C@@H](C(=O)O)NC(=O)[C@H](CCCCN)NC(=O)[C@H](CCCN=C(N)N)NC(=O)[C@H](CC(C)C)NC1=O` [FVLPLVMCKILRKC]: the MIC in experiment [18] was above 60.1 µM; in experiment [31], above 60.1 µM; in [32], 5.64 µM (≈ 9.37 µg/mL); in experiment [33] it was at least 60.1 µM; in experiment [34], 5.64 µM (≈ 9.37 µg/mL).
`CC[C@H](C)[C@H](NC(=O)[C@H](Cc1ccccc1)NC(=O)[C@@H](NC(=O)[C@@H](N)CCCCN)C(C)C)C(=O)N[C@@H](C)C(=O)N[C@H](C(=O)N[C@@H](CC(C)C)C(=O)N[C@H](C(=O)N[C@H](C(=O)N[C@@H](CO)C(=O)N[C@@H](CO)C(=O)N[C@@H](Cc1ccccc1)C(=O)N[C@@H](CC(C)C)C(=O)N[C@@H](CC(C)C)C(=O)N[C@@H](C)C(=O)N[C@@H](CCCCN)C(=O)N1CCC[C@H]1C(=O)N1CCC[C@H]1C(=O)N[C@@H](CCCN=C(N)N)C(=O)N[C@H](C(=O)O)C(C)C)C(C)C)C(C)C)[C@@H](C)O` [KVFIATLVVSSFLLAKPPRV]: the MIC is at least 117 µM in experiment [35], at least 117 µM in experiment [36], above 117 µM in [37] and above 117 µM in [38].
For `CC[C@H](C)[C@H](NC(=O)[C@H](CCCCN)NC(=O)[C@@H](NC(=O)[C@H](Cc1c[nH]c2ccccc12)NC(=O)[C@H](CS)NC(=O)[C@H](CCCNC(=N)N)NC(=O)[C@@H]1CCCN1C(=O)[C@@H](N)CCCNC(=N)N)[C@@H](C)CC)C(=O)N[C@@H](CCCCN)C(=O)N[C@@H](Cc1ccccc1)C(=O)N[C@@H](CCCNC(=N)N)C(=O)N[C@@H](CS)C(=O)N[C@@H](CCCCN)C(=O)N[C@@H](CO)C(=O)N[C@@H](CC(C)C)C(=O)N[C@@H](CCCCN)C(=O)N[C@@H](Cc1ccccc1)C(=O)O` [RPRCWIKIKFRCKSLKF], the MIC is at least 45.3 µM in experiment [39]; 8.48 µM (≈ 18.8 µg/mL) in experiment [40]; 17 µM (≈ 37.5 µg/mL) in [18]; 17 µM (≈ 37.5 µg/mL) in [41]; 24 µM (≈ 53 µg/mL) in experiment [37]; 17 µM (≈ 37.5 µg/mL) in [42]. The MIC in experiment [23] was 8.48 µM (≈ 18.8 µg/mL); in experiment [43], 4.24 µM (≈ 9.38 µg/mL); in [25], 4.24 µM (≈ 9.38 µg/mL); in experiment [44], 4.24 µM (≈ 9.38 µg/mL).
